Data on 3 molecules can be found in US5137905A, “Heterocyclic acetylenic amines having central nervous system activity” (The Upjohn Company, priority 1991, dated 1992).

Molecules are shown by their SMILES. Read-outs that look alike come from different tables or passages of the source. A value given as a limit tells only on which side of the number the result lay.

The subject of data set [1] is cholinergic mechanism. The conditions noted are these: extremely low doses; cited from earlier work.
The conditions of data set [2]: versus prior oxotremorine compounds; U.S. Pat. No. 3,925,411; cited from earlier work.
In data set [3] the target is CNS cholinergic receptor. Nature of the data set: CNS cholinergic receptor binding, oxotremorine M ligand. The conditions noted are these: tritiated oxotremorine M; read-out: CNS Cholinergic Receptor Binding Assays K1 Oxotremorine.
Data set [4] deals with CNS cholinergic receptor. The conditions noted are these: tritiated quinuclidine benzylate (QNB); read-out: CNS Cholinergic Receptor Binding Assays K1 QNB.
The subject of data set [5] is amnesia produced by scopolamine. Description: Antagonism of scopolamine-induced amnesia, passive avoidance. It is filed as in vivo. The conditions noted are these: i.p. test compound, 1 mg/kg s.c. scopolamine hydrobromide, mouse step through passive avoidance. From the text:
For antagonism of amnesia produced by scopolamine a one trial, step through passive avoidance paradigm was used. In this procedure a mouse was placed on a square platform adjoining a darkened chamber. The mouse could enter the chamber through a hole above the platform. Following placement on the platform, the mouse was enclosed by a clear plexiglas cover which mildly restricted movement, limiting the animal to turning around and partial rearing. A sliding door was opened after this, exposing the entrance to the chamber. A timer was started at the same time the door was opened, in order to record latency to enter the chamber. Upon complete entry into the darkened box, the door was closed behind the mouse and a 1 mA, 2 sec, direct current shock applied to the feet of the mouse through the grid floor. The mouse was immediately removed from the chamber and returned to a 24 hr group holding cage.
Drug testing involved intraperitoneal injection of the test compound followed 15 min later by subcutaneous injection of 1 mg/kg scopolamine hydrobromide. […] The latency for each mouse to enter the chamber was recorded, with a cut-off at 180 sec.
Median group latencies to enter the chamber during both training and testing were recorded and a Wilcoxon rank sum test applied to data comparing the parallel "scopolamine only" group with all drug combination groups on testing. […]

Data set [6] concerns oxotremorine-induced body tremor. Nature of the data set: Oxotremorine antagonist assay (body tremor). The conditions noted are these: Mus musculus, ip; read-out: Oxot. Antagonist Tremor (ED50). It is filed as in vivo, mice. The method, then: Oxotremorine antagonist assays were performed on groups of six mice weighing 18-22 g. Each was dosed intraperitoneally with the test compound prepared in 0.25% methylcellulose and were placed in individual cages. Twenty minutes later the mice were injected subcutaneously with 0.5 mg/kg of oxotremorine dissolved in saline. Ten minutes later the mice were scored for body tremor. Doses of the compound under study began at 100 mg/kg and were decreased at a 0.5 log interval until no responders were obtained.

In data set [7] the test system is HCl-induced writhing. Description: HCl writhing protection (analgesic activity). The conditions noted are these: Mus musculus, sc; ED50; s.c. in CF1 mice, 30 min before i.p. 0.15% HCl; read-out: CNS Id (ED50 mg/kg) HCl Writh. Protect. Type of data set: in vivo, CF1 mice. The method, then: For determination of analgesic activity, the test compound was injected subcutaneously into a group of four CF1 mice. Thirty minutes later the mice were injected i.p. with 0.15% HCl, 10 ml./kg. Mice were then placed in plastic boxes and observed for fifteen minutes to record the number of animals failing to writhe.
Background: An intraperitoneal irritant provokes the stretching counted in writhing tests.

Turning to `O=C1CCCN1CC#CCN1CCCC1` [oxotremorine, 1-[4-(1-pyrrolidinyl-2-butynyl)-2-pyrrolidinone]], the “tremors and spasticity in laboratory animals” value in data set [1] is “induces tremors and spasticity in laboratory animals”.

Consider `O=C1CCCN1CCC#CCN1CCCC1` [N-(5-pyrrolidino-3-pentynyl)-pyrrolidin-2-one], for which the half life entry in data set [2] is given as “increased half life over prior oxotremorine compounds”.

For `Cn1ccn(CC#CCN2CCCC2)c1=O` [Compound 36, 1,3-Dihydro-1-methyl-3-[4-(1-pyrrolidinyl)-2-butynyl]-2H-imidazol-2-one], the Ki in data set [3] worked out at 7 nM; in data set [4] it was 510 nM. In addition, in data set [5], the “antagonism of amnesia produced by scopolamine” value was “the most active”. The ED50 is more than 10 mg/kg in data set [6] and 1.3 mg/kg in data set [7].
